The values that follow come from patent US12060347B2 (BRISTOL-MYERS SQUIBB COMPANY, priority 2016, dated 2024).

Structures are written as SMILES.

In the test the target is T1, human PAR4 (Homo sapiens, UniProt Q96RI0).
T1 construct: expressed in transfected cells; host or cells: HEK293 PAR4 Clone 1.2A (BMS Arctic ID 383940)
T1 sequence (Q96RI0 18-385): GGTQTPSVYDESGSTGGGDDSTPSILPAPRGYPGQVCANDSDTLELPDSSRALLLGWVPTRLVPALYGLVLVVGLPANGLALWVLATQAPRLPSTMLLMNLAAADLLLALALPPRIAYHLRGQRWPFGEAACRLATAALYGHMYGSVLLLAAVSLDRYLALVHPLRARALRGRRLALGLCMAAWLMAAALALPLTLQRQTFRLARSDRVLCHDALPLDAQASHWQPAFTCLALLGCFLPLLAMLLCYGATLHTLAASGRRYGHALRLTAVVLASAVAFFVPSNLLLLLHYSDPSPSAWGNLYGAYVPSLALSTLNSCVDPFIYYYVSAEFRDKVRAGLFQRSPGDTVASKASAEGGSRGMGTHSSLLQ
Nature of the test: PAR4 FLIPR assay: antagonism of agonist-peptide-induced calcium mobilization in PAR4-expressing HEK293 cells. Format: cell-based. As to conditions: H-Ala-Phe(4-F)-[…]NH2-induced intracellular calcium mobilization, 11-point curves. On the technique in general: Calcium assays in cells follow changes in intracellular calcium, usually with a dye or a luminescent sensor.

One may read the IC50 as the concentration needed to halve the response being measured. Consider `COc1cnc2c(-c3nc4cc(F)c(OC[C@@H](C)OC(=O)Nc5cnc(CCO)nc5)cc4s3)cc(C)cc2n1` [Example 564, (R)-1-((5-fluoro-2-(2-methoxy-7-methylquinoxalin-5-yl)benzo[d]thiazol-6-yl)oxy)propan-2-yl (2-(2-hydroxyethyl)pyrimidin-5-yl)carbamate], for which the IC50 worked out at 3.7 nM. The figure for `COc1cnc2c(-c3nc4cc(F)c(O[C@@H](C)[C@@H](C)OC(=O)Nc5cnc(CCO)nc5)cc4s3)cc(C)cc2n1` [Example 565, (2R,3S)-3-((5-fluoro-2-(2-methoxy-7-methylquinoxalin-5-yl)benzo[d]thiazol-6-yl)oxy)butan-2-yl (2-(2-hydroxyethyl)pyrimidin-5-yl)carbamate] is 3 nM; for `CCOc1cnc2c(-c3nc4cc(F)c(O[C@@H](C)[C@@H](C)OC(=O)Nc5cnc(CCO)nc5)cc4s3)cc(C)cc2n1` [Example 566, (2R,3S)-3-((2-(2-ethoxy-7-methylquinoxalin-5-yl)-5-fluorobenzo[d]thiazol-6-yl)oxy)butan-2-yl (2-(2-hydroxyethyl)pyrimidin-5-yl)carbamate] it is 1.8 nM.

In the case of `COc1cnc2c(-c3nc4cc(F)c(OC[C@@H](C)OC(=O)Nc5ccnc(OCCC(C)(C)O)c5)cc4s3)cc(C)cc2n1` [Example 567, (R)-1-((5-fluoro-2-(2-methoxy-7-methylquinoxalin-5-yl)benzo[d]thiazol-6-yl)oxy)propan-2-yl (2-(3-hydroxy-3-methylbutoxy)pyridin-4-yl)carbamate], the IC50 was found to be 5.9 nM. The figure for `CCOc1cnc2c(-c3nc4cc(F)c(O[C@@H](C)[C@@H](C)OC(=O)Nc5cnc(OCCO)nc5)cc4s3)cc(C)cc2n1` [Example 568, (2R,3S)-3-((2-(2-ethoxy-7-methylquinoxalin-5-yl)-5-fluorobenzo[d]thiazol-6-yl)oxy)butan-2-yl (2-(2-hydroxyethoxy)pyrimidin-5-yl)carbamate] is 2.4 nM. As to `COc1cnc2c(-c3nc4cc(F)c(OC[C@@H](C)OC(=O)Nc5cnc(OCCC(C)(C)O)nc5)cc4s3)cc(C)cc2n1` [Example 569, (R)-1-((5-fluoro-2-(2-methoxy-7-methylquinoxalin-5-yl)benzo[d]thiazol-6-yl)oxy)propan-2-yl (2-(3-hydroxy-3-methylbutoxy)pyrimidin-5-yl)carbamate], the IC50 is 8.2 nM.

Take `COc1cnc2c(-c3nc4cc(F)c(O[C@@H](C)[C@@H](C)OC(=O)Nc5cnc(OCCC(C)(C)O)nc5)cc4s3)cc(C)cc2n1` [Example 570, (2R,3S)-3-((5-fluoro-2-(2-methoxy-7-methylquinoxalin-5-yl)benzo[d]thiazol-6-yl)oxy)butan-2-yl (2-(3-hydroxy-3-methylbutoxy)pyrimidin-5-yl)carbamate]: the 50% inhibitory concentration (IC50) was 6.6 nM. The figure for `COc1cnc2c(-c3nc4cc(F)c(O[C@@H](C)[C@@H](C)OC(=O)Nc5ccc(OCCO)nc5)cc4s3)cc(C)cc2n1` [Example 571, (2R,3S)-3-((5-fluoro-2-(2-methoxy-7-methylquinoxalin-5-yl)benzo[d]thiazol-6-yl)oxy)butan-2-yl (6-(2-hydroxyethoxy)pyridin-3-yl)carbamate] is 1 nM; for `COc1cnc2c(-c3nc4cc(F)c(OC[C@@H](C)OC(=O)Nc5ccc(OCCO)nc5)cc4s3)cc(C)cc2n1` [Example 572, (R)-1-((5-fluoro-2-(2-methoxy-7-methylquinoxalin-5-yl)benzo[d]thiazol-6-yl)oxy)propan-2-yl (6-(2-hydroxyethoxy)pyridin-3-yl)carbamate] it is 0.9 nM. Turning to `COc1cnc2c(-c3nc4cc(F)c(O[C@@H](C)[C@@H](C)OC(=O)Nc5ccc(OCC(F)(F)CO)nc5)cc4s3)cc(C)cc2n1` [Example 573, (2R,3S)-3-((5-fluoro-2-(2-methoxy-7-methylquinoxalin-5-yl)benzo[d]thiazol-6-yl)oxy)butan-2-yl (6-(2,2-difluoro-3-hydroxypropoxy)pyridin-3-yl)carbamate], the 50% inhibitory concentration (IC50) worked out at 1.6 nM.
